Experimental data reported in the SangsterLogP compilation.

Assay: not given
Details: not given

Row | logP | Compound
1 | 2.9 | CCOC(=O)COc1cccc2ccccc12
2 | 0.06 | CS(=O)(=O)c1ccc(OCC(=O)O)cc1

Row | Compound | logP
3 | Nc1nc[nH]n1 | -0.87

Assay: not given
Details: not given
Remark: another data set of the same source

Row | logP | Compound
4 | 0.78 | Cc1c(O)cc(C(=O)Cc2ccccc2)oc1=O
5 | 0.5 | O=c1cc(O)cco1
6 | 0.43 | O=C(Cc1cc(O)cc(=O)o1)c1ccccc1

Assay: not given
Details: not given
Remark: another data set of the same source

Row | Compound | logP
7 | CCCCCCCCOC(=O)N(C)SN(C)C(=O)Oc1ccc2c(c1)OCO2 | 4.67
8 | CCCCCCCCCCCCCCCCOC(=O)N(C)SN(C)C(=O)Oc1ccc2c(c1)OCO2 | 10.5
9 | CC(C)Oc1ccccc1OC(=O)N(C)SN(C)C(=O)Oc1ccc2c(c1)OCO2 | 2.7
10 | CCCCCCCCCCCCOC(=O)N(C)SN(C)C(=O)Oc1ccc2c(c1)OCO2 | 7.39

Assay: not given
Details: not given
Remark: another data set of the same source

Row | logP | Compound
11 | 4.6 | O=C1c2c(O)cccc2C(C(=O)C(c2ccccc2)c2ccccc2)c2cccc(O)c21
12 | 4.97 | O=C1c2c(O)cccc2C(C(=O)CC2CCCCC2)c2cccc(O)c21
13 | 4.61 | O=C1c2c(O)cccc2C(C(=O)Cc2cccc3ccccc23)c2cccc(O)c21
14 | 4.71 | O=C1c2c(O)cccc2C(C(=O)Cc2ccc3ccccc3c2)c2cccc(O)c21

Assay: not given
Details: not given
Remark: another data set of the same source

Row | logP | Compound
15 | 3.28 | CC(=O)OC(C(=O)ON=C1C2CC3CC(C2)CC1C3)c1ccccc1 (stereo not given)
16 | 4.64 | CC(=O)C(C(=O)ON=C(C)C12CC3CC(CC(C3)C1)C2)c1ccccc1 (stereo not given)
17 | 3.72 | CCC(=O)OC(C(=O)NC12CC3CC(CC(C3)C1)C2)c1ccccc1 (stereo not given)
18 | 3.21 | CC(=O)OC(C(=O)NC12CC3CC(CC(C3)C1)C2)c1ccccc1 (stereo not given)

Assay: method code SF-AS, from DOI: 10.1016/0045-6535(83)90122-4
Details: not given

Row | Compound | logP
19 | O=[N+]([O-])c1c(Cl)c(Cl)cc(Cl)c1Cl | 3.89
20 | O=[N+]([O-])c1cc(Cl)c(Cl)cc1Cl | 3.48
21 | O=[N+]([O-])c1ccc(Cl)c(Cl)c1 | 3.12

Assay: method code SF-HPLC, from DOI: 10.1016/0378-5173(85)90011-0
Details: not given

Row | logP | Compound
22 | 0.3 | CCC(=O)n1ncc2c(=O)[nH]cnc21
23 | -0.35 | CC(=O)n1ncc2c(=O)[nH]cnc21

Same assay, conditions: pH 7.4

Row | Compound | logD
24 | O=c1[nH]cnc2[nH]ncc12 | -0.55

Assay: method code SF-GLC, from DOI: 10.1016/s0022-3565(25)30310-1, PMID: 1181405
Details: pH 7.4

Row | logD | Compound
25 | 0.95 | CCCOC(=O)NC
26 | -0.06 | CNC(=O)OC

Row | Compound | logD
27 | CNC(=O)Oc1cc(C)c(C)c(C)c1 | 2.66

Assay: not given
Details: not given
Remark: another data set of the same source

Row | Compound | logP
28 | Clc1ccc(Cl)c(Cl)c1 | 4.03
29 | O=[N+]([O-])c1c(Cl)c(Cl)c(Cl)c(Cl)c1Cl | 4.64
30 | NC(=O)c1c(Cl)cccc1Cl | 1.25

Assay: not given
Details: not given
Remark: another data set of the same source

Row | logP | Compound
31 | 3.21 | Cc1cc(C(=O)N2Cc3ccc(C(=O)N(CCO)CCO)n3Cc3ccccc32)ccc1-c1ccccc1C(F)(F)F
32 | 4.18 | Cc1cc(C(=O)N2Cc3ccc(C(=O)NCCF)n3Cc3ccccc32)ccc1-c1ccccc1C(F)(F)F
33 | 3.31 | Cc1cc(C(=O)N2Cc3ccc(C(=O)N(CCO)CCO)n3Cc3ccccc32)ccc1-c1cc(F)ccc1C(F)(F)F
34 | 4.08 | Cc1cc(C(=O)N2Cc3ccc(C(=O)N4CCOCC4)n3Cc3ccccc32)ccc1-c1ccccc1CCF

Assay: not given
Details: not given
Remark: another data set of the same source

Row | Compound | logP
35 | CCCC(c1c(O)c2ccccc2oc1=O)c1c(O)c2ccccc2oc1=O | 2.31
36 | CCCCC(c1c(O)c2ccccc2oc1=O)c1c(O)c2ccccc2oc1=O | 2.69
37 | CC(c1c(O)c2ccccc2oc1=O)c1c(O)c2ccccc2oc1=O | 0.43
38 | O=c1oc2ccccc2c(O)c1Cc1c(O)c2ccccc2oc1=O | 1.83

Assay: method code SF-NMR, from DOI: 10.1002/jps.2600751016, PMID: 3795031
Details: not given

Row | logP | Compound
39 | 1.7 | CCC(O)CCC(F)(F)F (stereo not given)
40 | 1.37 | CC(CCO)C(F)(F)F (stereo not given)
41 | 1.39 | CC(CO)CC(F)(F)F (stereo not given)

Assay: method code SF-AS, from DOI: 10.1007/bf01964075
Details: pH 2.1

Row | logD | Compound
42 | -1.21 | CNC(=O)C(C)NC(C)=O (racemic)
43 | -1.56 | CNC(=O)CNC(C)=O
44 | 0.14 | CNC(=O)[C@H](CC(C)C)NC(C)=O

Assay: method code SF, from DOI: 10.1016/0360-3016(92)90876-j, PMID: 1735696
Details: pH 7.4

Row | logD | Compound
45 | -0.43 | O=[N+]([O-])c1nccn1CC=NO
46 | -1.32 | O=C(Cn1ccnc1[N+](=O)[O-])NCCO
47 | -0.47 | CC(=O)O/N=C/Cn1ccnc1[N+](=O)[O-]

Assay: not given
Details: not given
Remark: another data set of the same source

Row | logP | Compound
48 | 6.3 | CC(C)C12C=CC(C)(CC1)C1C(=O)N(CCCCN3CCN(c4ccc5ccccc5n4)CC3)C(=O)C12 (stereo not given)
49 | 6.59 | CC(C)C12CCC(C)(CC1)C1C(=O)N(CCCCN3CCN(c4ccc5ccccc5n4)CC3)C(=O)C12 (stereo not given)
50 | 3.64 | O=C1C2C3CCC(C3)C2C(=O)N1CCCCN1CCN(c2ccc3ccccc3n2)CC1 (stereo not given)
51 | 3.83 | O=C1C2C3C=CC(CC3)C2C(=O)N1CCCCN1CCN(c2ccc3ccccc3n2)CC1 (stereo not given)

Assay: method code SF-AS, from DOI: 10.1002/jps.2600690614, PMID: 7205578
Details: not given

Row | logP | Compound
52 | 1.13 | CCN1CCN(CC)C1=S
53 | -0.68 | S=C1NCCCN1
54 | 2.87 | CN(C)CCN(Cc1cccs1)c1ccccn1

Assay: method code SF-AS, from PMID: 5136171
Details: not given

Row | logP | Compound
55 | 1.84 | CCOC(=O)c1cnc2cc(OCCOC)c(OCC(C)C)cc2c1O
56 | 1.7 | CCCOc1cc2c(O)c(C(=O)OCC)cnc2cc1OCCOC
57 | 1.72 | CCCCOc1cc2c(O)c(C(=O)OCC)cnc2cc1OCCOC
58 | 1.86 | CCOC(=O)c1cnc2cc(OCCOC)c(OC(C)C)cc2c1O

Assay: method code SF-RC, from DOI: 10.1021/es60170a013
Details: not given

Row | Compound | logP
59 | O=NN(c1ccccc1)c1ccccc1 | 3.13
60 | Clc1cccc(Cl)c1 | 3.44
61 | COc1ccc(Cl)cc1 | 2.78

Assay: not given
Details: not given
Remark: another data set of the same source

Row | logP | Compound
62 | 5.18 | CC1=C(C(=O)OC(C)C)C(c2cccc([N+](=O)[O-])c2)C(C(=O)OC2CN(C(c3ccccc3)c3ccccc3)C2)=C(N)N1 (stereo not given)

Assay: not given
Details: not given
Remark: another data set of the same source

Row | Compound | logP
63 | CCC(=O)OC1CC(n2cc(C=CBr)c(=O)[nH]c2=O)OC1COP1(=O)OCc2cccc(C)c2O1 (stereo not given) | 2.3
64 | Cc1cccc2c1OP(=O)(OCC1OC(n3cc(C=CBr)c(=O)[nH]c3=O)CC1OC(=O)C(C)(C)C)OC2 (stereo not given) | 3
65 | CCCCCC(=O)OC1CC(n2cc(C=CBr)c(=O)[nH]c2=O)OC1COP1(=O)OCc2cccc(C)c2O1 (stereo not given) | 2.6
66 | CCCCCCCCCC(=O)OC1CC(n2cc(C=CBr)c(=O)[nH]c2=O)OC1COP1(=O)OCc2cccc(C)c2O1 (stereo not given) | 2.8

Assay: not given
Details: not given
Remark: another data set of the same source

Row | logP | Compound
67 | 3.79 | Cn1c(CCC(=O)N2CCC[C@H]2C(=O)Nc2ccccc2-c2ccccc2)nc2ccccc21
68 | 3.2 | COc1ccc(CNC(=O)c2cc(-c3cncc(Cl)c3)cnc2-c2ccccn2)nc1OC
69 | 3.65 | COc1nc(C)ncc1OCC1(c2cccc(F)c2)CC1C(=O)Nc1ccc(F)cn1 (stereo not given)
70 | 4.98 | COc1ccccc1C(=O)N1CCCN(c2nc3ccc(Cl)cc3s2)CC1

Assay: method code SF-AS, from DOI: 10.1248/cpb.26.2832
Details: not given

Row | logP | Compound
71 | 3.49 | CCCCC(=O)OC1(C(=O)CO)C(C)CC2C3CCC4=CC(=O)C=CC4(C)C3(F)C(O)CC21C (stereo not given)
72 | 1.92 | CC(=O)OCC(=O)[C@@]1(O)[C@H](OC(C)=O)C[C@H]2[C@@H]3CCC4=CC(=O)C=C[C@]4(C)[C@@]3(F)[C@@H](O)C[C@@]21C
73 | 2.1 | CC(=O)OCC(=O)[C@@]1(O)CC[C@H]2[C@@H]3CCC4=CC(=O)CC[C@]4(C)[C@H]3C(=O)C[C@@]21C
74 | 2.4 | CC(=O)OCC(=O)[C@@]1(O)CC[C@H]2[C@@H]3CCC4=CC(=O)C=C[C@]4(C)[C@H]3[C@@H](O)C[C@@]21C

Assay: method code SF-HPLC, from DOI: 10.1016/0378-5173(92)90116-j
Details: pH 7.4

Row | logD | Compound
75 | 2.18 | CCC(C(=O)OCc1ccc(COC(=O)C(CC)C(CO)Cc2cncn2C)cc1)C(CO)Cc1cncn1C (stereo not given)
76 | 2.03 | CCC(C(=O)OCc1ccccc1COC(=O)C(CC)C(CO)Cc1cncn1C)C(CO)Cc1cncn1C (stereo not given)
77 | 1.57 | CCC(C(=O)OCCCCCOC(=O)C(CC)C(CO)Cc1cncn1C)C(CO)Cc1cncn1C (stereo not given)
78 | 2.67 | CCC(C(=O)OCCCCCCCOC(=O)C(CC)C(CO)Cc1cncn1C)C(CO)Cc1cncn1C (stereo not given)

Assay: method code SF-GLC, from DOI: 10.1021/jm00240a002, PMID: 1151965
Details: not given

Row | logP | Compound
79 | 2.3 | FC(F)(F)C(Cl)Br (stereo not given)
80 | 2.21 | COC(F)(F)C(Cl)Cl

Row | Compound | logP
81 | FC(F)(F)C(F)(F)F | 2

Assay: not given
Details: not given
Remark: another data set of the same source

Row | logP | Compound
82 | 2.07 | O=C(O)c1[nH]c2cc(Cl)cc(Cl)c2c1CN1CC(=O)N(c2ccc(OCCF)cc2)C1=O
83 | 1.51 | O=C(O)c1[nH]c2cc(Cl)cc(Cl)c2c1CN1CC(=O)N(c2ccccc2OCCF)C1=O
84 | 2.26 | COc1ccc(N2C(=O)CN(Cc3c(C(=O)O)[nH]c4cc(Cl)cc(Cl)c34)C2=O)cc1
85 | 2.53 | O=C(O)c1[nH]c2cc(Cl)cc(Cl)c2c1CN1CC(=O)N(c2ccc(OCCF)c(Cl)c2)C1=O
